According to BindingDB's records for doi:10.1080/14756360701654894 (National Tsing Hua University, 2008):

Key:
Polyphenol oxidase 2 = molecular target: T1, Polyphenol oxidase 2 (Agaricus bisporus, UniProt O42713); test: Enzyme Assay; conditions: pH 6.8; 25 °C
T1 sequence (O42713 whole entry): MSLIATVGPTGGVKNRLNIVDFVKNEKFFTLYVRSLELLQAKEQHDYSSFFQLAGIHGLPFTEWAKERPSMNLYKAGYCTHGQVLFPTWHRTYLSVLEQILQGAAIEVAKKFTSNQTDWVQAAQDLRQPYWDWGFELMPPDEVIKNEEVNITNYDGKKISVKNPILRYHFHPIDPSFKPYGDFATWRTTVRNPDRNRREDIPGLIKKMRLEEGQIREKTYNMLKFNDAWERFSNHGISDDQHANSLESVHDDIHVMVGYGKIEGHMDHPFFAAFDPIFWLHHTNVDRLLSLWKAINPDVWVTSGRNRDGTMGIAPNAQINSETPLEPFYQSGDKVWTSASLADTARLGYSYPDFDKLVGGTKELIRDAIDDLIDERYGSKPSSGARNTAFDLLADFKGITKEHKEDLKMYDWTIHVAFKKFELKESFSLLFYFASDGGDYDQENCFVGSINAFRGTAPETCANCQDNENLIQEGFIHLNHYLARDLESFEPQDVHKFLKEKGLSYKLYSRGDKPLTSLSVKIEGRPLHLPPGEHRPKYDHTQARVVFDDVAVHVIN

Tyrosinase = molecular target: T2, Tyrosinase (Mus musculus, UniProt P11344); test: Enzyme Assay; conditions: pH 6.8; 25 °C
T2 sequence (P11344 whole entry): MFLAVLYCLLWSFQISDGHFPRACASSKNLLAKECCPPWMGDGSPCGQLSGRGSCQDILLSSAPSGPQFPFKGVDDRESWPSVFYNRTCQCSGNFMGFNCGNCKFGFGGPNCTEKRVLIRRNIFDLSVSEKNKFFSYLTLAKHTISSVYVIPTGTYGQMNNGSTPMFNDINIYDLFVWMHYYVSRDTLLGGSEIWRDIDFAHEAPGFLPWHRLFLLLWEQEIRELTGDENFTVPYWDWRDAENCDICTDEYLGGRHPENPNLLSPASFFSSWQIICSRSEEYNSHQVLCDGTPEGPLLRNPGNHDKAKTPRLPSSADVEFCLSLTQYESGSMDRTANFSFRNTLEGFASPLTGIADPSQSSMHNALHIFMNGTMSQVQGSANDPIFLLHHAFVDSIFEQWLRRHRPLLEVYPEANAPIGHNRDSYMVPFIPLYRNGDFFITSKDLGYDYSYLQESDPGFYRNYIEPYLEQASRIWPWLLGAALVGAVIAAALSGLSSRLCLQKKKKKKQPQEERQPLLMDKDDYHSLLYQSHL

| SMILES | IC50 (Polyphenol oxidase 2) [µM] | IC50 (Tyrosinase) [µM] |
| --- | --- | --- |
| Oc1ccc(O)cc1 | 87.6 | 188 |
| OCC1OC(Oc2ccc(O)cc2)C(O)C(O)C1O (centres undefined) [2-Hydroxymethyl-6-(4-hydroxy-phenoxy)-tetrahydro-pyran-3,4,5-triol] | 296 |  |
| COc1ccc(/C=C2/SC(=S)N(CCC(=O)O)C2=O)cc1 [3-[(5E)-5-[(4-methoxyphenyl)methylidene]-4-oxo-2-sulfanylidene-3-thiazolidinyl]propanoic acid] | 894 | 2390 |
| OCc1ccc(O)cc1 [4-Hydroxybenzyl alcohol] | 350 | 650 |
| COc1cc(-c2nc(S(=O)(=O)c3ccc(C)cc3)c(N3CCOCC3)o2)cc(OC)c1OC [4-[4-(4-methylphenyl)sulfonyl-2-(3,4,5-trimethoxyphenyl)-5-oxazolyl]morpholine] | 402 | 952 |
